Measurements from patent publication US20250092065A1, “2-(INDAZOL-5-YL)-6-(PIPERIDIN-4-YL)-1,7-NAPHTHYRIDINE DERIVATIVES AND RELATED COMPOUNDS AS MODULATORS FOR SPLICING NUCLEIC ACIDS AND FOR THE TREATMENT OF PROLIFERATIVE DISEASES” (REMIX THERAPEUTICS INC., priority 2022, published 2025).
Structures can show the parent of a compound that is named as a salt. Where two headings read alike, the source gives them in different places.

How the values were obtained:
Format in all cases: cell-based, human
[1] = tested on: MYB mRNA; experiment: RT-qPCR splicing assay, MYB mRNA canonical (CJ) and alternative (AJ) junction; details: Homo sapiens
How it was run: (§1)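 A673 or K562 cells treated 24 h at 37 °C with an 11-point 3-fold dilution series (top 10 uM, DMSO ≤0.25%). Lysates went directly to one-step RT-qPCR quantifying canonical (CJ) and alternative-exon (AJ) junctions, normalized to GAPDH, GUSB or PPIA. Values from ΔΔCt versus DMSO, RQ = 2^(−ΔΔCt), expressed as percentage response.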

[2] = tested on: HTT; experiment: HiBiT protein abundance assay, HTT (K562 HiBiT knock-in); details: HiBiT knock-in K562 cells, 24 hours, top dose 10 μM
How it was run: (§2)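 Steps: seed HiBiT knock-in K562 cells; add compound in 10-point 3-fold series from 10 μM final; incubate 24 h, 37 °C; add lytic HiBiT reagent, shake 5 min, wait 10 min; read luminescence. Normalize to parental K562 and DMSO controls, fit 4PL, take IC50.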

[3] = tested on: Target C; experiment: HiBiT protein abundance assay, Target C (K562 HiBiT knock-in); details: HiBiT knock-in K562 cells, 24 hours, top dose 10 μM
How it was run: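 K562 HiBiT knock-in cells (10000/well) were treated 24 h at 37° C with a 10-point 3-fold dilution series (top 10 μM final, ≤0.25% DMSO). HiBiT luminescence was read after lytic LgBiT detection. Percent response used unmodified K562 and DMSO-treated knock-in controls, and IC50 came from a four-parameter fit at 50% of untreated.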

[4] = tested on: HTT mRNA; experiment: RT-qPCR splicing assay, HTT mRNA canonical (CJ) and alternative (AJ) junction; details: Homo sapiens
How it was run: as §1

[5] = tested on: MYB; experiment: HiBiT protein abundance assay, MYB (K562 HiBiT knock-in); details: HiBiT knock-in K562 cells, 24 hours, top dose 10 μM
How it was run: as §2

[6] = RT-qPCR, MYB alternative junction mRNA increase, read-out: MYB AJ (increase in alternative junction mRNA, AC50)
[7] = RT-qPCR, MYB canonical junction mRNA decrease, read-out: MYB CJ (decrease in canonical junction mRNA, IC50)
[8] = canonical junction qPCR panel, Table 4, read-out: MYB IC50 (decrease in CJ mRNA levels)
[9] = RT-qPCR, HTT alternative junction mRNA increase, read-out: HTT AJ (increase in alternative junction mRNA, AC50)
[10] = RT-qPCR, HTT canonical junction mRNA decrease, read-out: HTT CJ (decrease in canonical junction mRNA, IC50)
[11] = canonical junction qPCR panel, Table 4, read-out: HTT IC50 (decrease in CJ mRNA levels)
[12] = MYB alternative junction mRNA, RT-qPCR, read-out: MYB AJ (increase in AJ mRNA, AC50)
[13] = MYB canonical junction mRNA, RT-qPCR, read-out: MYB CJ (decrease in CJ mRNA levels, IC50)
[14] = HTT alternative junction mRNA, RT-qPCR, read-out: HTT AJ (increase in AJ mRNA, AC50)
[15] = HTT canonical junction mRNA, RT-qPCR, read-out: HTT CJ (decrease in CJ mRNA levels, IC50)

| SMILES | IC50 [1, 7] | IC50 [1, 8] | IC50 [2] | IC50 [3] | IC50 [4, 10] | IC50 [4, 11] | IC50 [5] | IC50 [1, 13] | IC50 [4, 15] | AC50 [1, 6] | AC50 [4, 9] | AC50 [1, 12] | AC50 [4, 14] |
| --- | --- | --- | --- | --- | --- | --- | --- | --- | --- | --- | --- | --- | --- |
| Cn1cc2cc(-c3cc4ccc(C5CCNCC5)nc4cn3)c(O)cc2n1 [Compound 104] |  | 1000 to 10000 nM | 1000 to 10000 nM | 1000 to 10000 nM |  | 1000 to 10000 nM | 1000 to 10000 nM | 1000 to 10000 nM | 1000 to 10000 nM |  |  | 1000 to 10000 nM | 1000 to 10000 nM |
| Cc1cn2nc(-c3ccc4nc(N5CCC(NC(C)(C)C)C5)ccc4n3)cc(C)c2n1 (stereo not drawn) [Compound 186] |  | 100 to 1000 nM | < 100 nM | < 100 nM |  | < 100 nM | 100 to 1000 nM | 100 to 1000 nM | < 100 nM |  |  | < 100 nM | < 100 nM |
| C[C@@H]1CN(c2cc(F)c3nc(-c4cc(F)c5nn(C)cc5c4)ccc3c2)C[C@H](C)N1 [Compound 758, 6-[(3R,5S)-3,5-dimethylpiperazin-1-yl]-8-fluoro-2-(7-fluoro-2-methylindazol-5-yl)quinoline] | 100 to 1000 nM | 100 to 1000 nM | 100 to 1000 nM | 100 to 1000 nM | 100 to 1000 nM | 100 to 1000 nM | 100 to 1000 nM |  |  | 100 to 1000 nM | 1000 to 10000 nM |  |  |
| C[C@@H]1CN(c2cc(F)c3nc(-c4cc5cn(C)nc5cc4O)ccc3c2)C[C@H](C)N1 [Compound 768, 5-{6-[(3R,5S)-3,5-dimethylpiperazin-1-yl]-8-fluoroquinolin-2-yl}-2-methylindazol-6-ol hydrochloride] | 100 to 1000 nM | 100 to 1000 nM | 1000 to 10000 nM | 1000 to 10000 nM | 1000 to 10000 nM | 1000 to 10000 nM | < 100 nM |  |  | 100 to 1000 nM | 1000 to 10000 nM |  |  |
| Cc1cn2cc(-c3nc(C(=O)NC4CCC4)c4cc(N5C[C@@H](C)N[C@@H](C)C5)ccc4n3)cc(F)c2n1 [Compound 779, N-cyclobutyl-6-[(3R,5S)-3,5-dimethylpiperazin-1-yl]-2-{8-fluoro-2-methylimidazo[1,2-a]pyridin-6-yl}quinazoline-4-carboxamide] | < 100 nM | < 100 nM | 100 to 1000 nM | 100 to 1000 nM | 1000 to 10000 nM | 1000 to 10000 nM | < 100 nM |  |  | < 100 nM | 1000 to 10000 nM |  |  |
| Cc1c(O)c(-c2nc(C(N)=O)c3cc(N4C[C@H](C)N[C@@H](C)C4)ccc3n2)cc2cn(C)nc12 [Compound 796] | < 100 nM | < 100 nM | 100 to 1000 nM | 100 to 1000 nM | 100 to 1000 nM | 100 to 1000 nM | < 100 nM |  |  | < 100 nM | 100 to 1000 nM |  |  |
| C[C@H]1CN(c2ccc3nc(-c4cc5cn(C)nc5cc4O)nc(C(N)=O)c3c2)C[C@H](C)N1 [Compound 797] | < 100 nM | < 100 nM | 100 to 1000 nM | 1000 to 10000 nM | 1000 to 10000 nM | 1000 to 10000 nM | < 100 nM |  |  | < 100 nM | 100 to 1000 nM |  |  |
| Cc1cn2cc(-c3ncc4cc(N5C[C@H](C)N[C@@H](C)C5)ccc4n3)cc(F)c2n1 [Compound 803, 6-[(3S,5S)-3,5-dimethylpiperazin-1-yl]-2-{8-fluoro-2-methylimidazo[1,2-a]pyridin-6-yl}quinazoline] | < 100 nM | < 100 nM | 100 to 1000 nM | 100 to 1000 nM | 100 to 1000 nM | 100 to 1000 nM | < 100 nM |  |  | < 100 nM | 100 to 1000 nM |  |  |

The next lines start with results.

| IC50 [1, 7] | IC50 [1, 8] | IC50 [2] | IC50 [3] | IC50 [4, 10] | IC50 [4, 11] | IC50 [5] | IC50 [1, 13] | IC50 [4, 15] | SMILES | AC50 [1, 6] | AC50 [4, 9] | AC50 [1, 12] | AC50 [4, 14] |
| --- | --- | --- | --- | --- | --- | --- | --- | --- | --- | --- | --- | --- | --- |
| < 100 nM | < 100 nM | 100 to 1000 nM | 100 to 1000 nM | < 100 nM | < 100 nM | < 100 nM |  |  | C[C@H]1CN(c2cc(F)c3nc(-c4cc(F)c5nn(C)cc5c4)ccc3c2)C[C@H](C)N1 (single isomer, unassigned) [Compound 760] | 100 to 1000 nM | 100 to 1000 nM |  |  |
| < 100 nM | < 100 nM | < 100 nM | 100 to 1000 nM | 100 to 1000 nM | 100 to 1000 nM | < 100 nM |  |  | C[C@H]1CN(c2cc(F)c3nc(-c4cc5cn(C)nc5cc4O)ccc3c2)C[C@H](C)N1 (single isomer, unassigned) [Compound 770] | < 100 nM | 100 to 1000 nM |  |  |
| < 100 nM | < 100 nM | 100 to 1000 nM | 100 to 1000 nM | 100 to 1000 nM | 100 to 1000 nM | 100 to 1000 nM |  |  | Cc1cn2nc(-c3ccc4cc(N5C[C@H](C)N[C@@H](C)C5)cc(F)c4n3)cc(C)c2n1 (single isomer, unassigned) [Compound 799] | 100 to 1000 nM | 100 to 1000 nM |  |  |
| < 100 nM | < 100 nM | < 100 nM | < 100 nM | < 100 nM | < 100 nM | < 100 nM |  |  | Cc1c(O)c(-c2ccc3cc(N4C[C@H](C)N[C@@H](C)C4)cc(F)c3n2)cc2cn(C)nc12 (single isomer, unassigned) [Compound 800, 2,2,2-trifluoroacetate] | < 100 nM | < 100 nM |  |  |
| < 100 nM | < 100 nM | 100 to 1000 nM | 1000 to 10000 nM | > 10000 nM | > 10000 nM | < 100 nM |  |  | Cc1nc(-c2cc3cn(C)nc3cc2O)nc2ccc(N3C[C@H](C)N[C@@H](C)C3)cc12 (single isomer, unassigned) [Compound 806] | 100 to 1000 nM | 1000 to 10000 nM |  |  |
| < 100 nM | < 100 nM | 100 to 1000 nM | > 10000 nM | > 10000 nM | > 10000 nM | < 100 nM |  |  | Cc1nc(-c2cc3cn(C)nc3c(C)c2O)nc2ccc(N3C[C@H](C)N[C@@H](C)C3)cc12 (single isomer, unassigned) [Compound 807] | < 100 nM | 1000 to 10000 nM |  |  |
|  | < 100 nM | < 100 nM | < 100 nM |  | < 100 nM | < 100 nM | < 100 nM | < 100 nM | Cn1cc2cc(-c3ccc4nc(N5CC[C@H](NC6CCC6)C5)ccc4n3)c(O)cc2n1 [Compound 156] |  |  | < 100 nM | < 100 nM |
|  | < 100 nM | < 100 nM | < 100 nM |  | < 100 nM | < 100 nM | < 100 nM | < 100 nM | CC(C)N[C@H]1CCN(c2ccc3nc(-c4cc5cn(C)nc5cc4O)ccc3n2)C1 [Compound 171] |  |  | < 100 nM | < 100 nM |
|  | < 100 nM | < 100 nM | < 100 nM |  | < 100 nM | < 100 nM | < 100 nM | < 100 nM | Cn1cc2cc(-c3ccc4nc(N5CC[C@H](NCC6CC6)C5)ccc4n3)c(O)cc2n1 [Compound 194] |  |  | < 100 nM | < 100 nM |
| < 100 nM | < 100 nM | 1000 to 10000 nM | 1000 to 10000 nM | 1000 to 10000 nM | 1000 to 10000 nM | < 100 nM |  |  | CN(C)C1CCN(c2ccc3nc(-c4cc5cn(C)nc5c(F)c4O)ncc3c2)CC1 [Compound 757, 5-{6-[4-(dimethylamino)piperidin-1-yl]quinazolin-2-yl}-7-fluoro-2-methylindazol-6-ol] | 100 to 1000 nM | 1000 to 10000 nM |  |  |
| < 100 nM | < 100 nM | < 100 nM | < 100 nM | < 100 nM | < 100 nM | < 100 nM |  |  | C[C@@H]1CN(c2cc(F)c3nc(-c4cc5cn(C)nc5c(F)c4O)ccc3c2)C[C@H](C)N1 [Compound 763, 5-{6-[(3R,5S)-3,5-dimethylpiperazin-1-yl]-8-fluoroquinolin-2-yl}-7-fluoro-2-methylindazol-6-ol hydrochloride] | < 100 nM | 100 to 1000 nM |  |  |
| < 100 nM | < 100 nM | 100 to 1000 nM | 100 to 1000 nM | 1000 to 10000 nM | 1000 to 10000 nM | < 100 nM |  |  | Cc1cn2cc(-c3ncc4cc(N5C[C@@H](C)N[C@@H](C)C5)ccc4n3)cc(F)c2n1 [Compound 773, 6-[(3R,5S)-3,5-dimethylpiperazin-1-yl]-2-{8-fluoro-2-methylimidazo[1,2-a]pyridin-6-yl}quinazoline] | < 100 nM | 1000 to 10000 nM |  |  |
